US10940139B2, “Compounds that interact with the Ras superfamily for the treatment of cancers, inflammatory diseases, rasopathies, and fibrotic disease” (Shy Therapeutics LLC, priority 2017, dated 2021)

How the values were obtained:
[1] = tested on: TNFα production in RAW 264.7 macrophage cell line; test: Mouse TNF alpha quantification assay (LPS-stimulated macrophages, ELISA); type: cell-based; conditions: RAW264.7, RAW 264.7 murine leukemia virus transformed macrophage cell lines, LPS stimulation, read-out: TNF-α % Inhibition at 30 μM
[2] = tested on: IL6 production in RAW 264.7 macrophage cell line; test: Mouse IL6 quantification assay (LPS-stimulated macrophages, ELISA); type: cell-based; conditions: RAW264.7, RAW 264.7 murine leukemia virus transformed macrophage cell lines, LPS stimulation, read-out: IL-6 % Inhibition at 30 μM

Compound | inhibition at 30 µM [1] [%] | inhibition at 30 µM [2] [%]
O=C(Nc1nnc(-c2ccccn2)[nH]1)C1=NOC(c2ccccc2)C1 (centres unmarked) [drawing 1992] | 1 to 25 | 26 to 50
O=C(COc1ccccc1)Nc1nnc(-c2ccccn2)[nH]1 [drawing 1993] | 0 | 1 to 25
O=C(Nc1nnc(-c2ccccn2)[nH]1)c1csc(-c2ccco2)n1 [drawing 1994] | 0 | 51 to 75
O=C(Nc1nnc(-c2ccccn2)[nH]1)C1Cc2cc(Cl)ccc2O1 (centres unmarked) [drawing 1995] | 1 to 25 | 51 to 75
O=C(Cc1ccc2c(c1)OCO2)Nc1nnc(-c2ccccn2)[nH]1 [drawing 1996] | 1 to 25 | 26 to 50
O=C(Cc1ccc2c(c1)OCCO2)Nc1nnc(-c2ccccn2)[nH]1 [drawing 1997] | 1 to 25 | 0
N#CCc1ccc(OCC(=O)Nc2nnc(-c3ccccn3)[nH]2)cc1 [drawing 1998] | 1 to 25 | 0
O=C(Nc1nnc(-c2ccccn2)[nH]1)c1ccc(=O)n(CCOc2ccccc2)n1 [drawing 1999] | 0 | 26 to 50
COc1cn(-c2ccccc2)nc1C(=O)Nc1nnc(-c2ccccn2)[nH]1 [drawing 2000] | 0 | 26 to 50
CN(CC(=O)Nc1nnc(-c2ccccn2)[nH]1)S(=O)(=O)c1ccccc1 [drawing 2001] | 0 | 1 to 25
CS(=O)(=O)N1CCCc2cc(C(=O)Nc3nnc(-c4ccccn4)[nH]3)ccc21 [drawing 2002] | 1 to 25 | 26 to 50
O=C(Nc1nnc(-c2ccccn2)[nH]1)c1ccc(=O)[nH]n1 [drawing 2003] | 1 to 25 | 26 to 50
COc1ccc(COCC(=O)Nc2nnc(-c3ccccn3)[nH]2)cc1 [drawing 2004] | 1 to 25 | 26 to 50
O=C(COCCOc1ccccc1)Nc1nnc(-c2ccccn2)[nH]1 [drawing 2005] | 1 to 25 | 0
COc1ccc(OCc2nc(CNCCc3nnc4n3CCC4)cs2)cc1 [drawing 2006] | 0 | 1 to 25
O=C(Nc1nc(-c2ccccn2)cs1)C1COc2ccccc2O1 (centres unmarked) [drawing 2007] | 1 to 25 | 0
Cc1cc(C(=O)Nc2nc(-c3ccccn3)cs2)no1 [drawing 2009] | 0 | 76 to 100
O=C(Cn1c(=O)cnc2ccccc21)Nc1nc(-c2ccccn2)cs1 [drawing 2010] | 0 | 51 to 75
O=C(Nc1nc(-c2ccccn2)cs1)c1ccc2nccnc2c1 [drawing 2011] | 0 | 51 to 75
O=C(Nc1nc(-c2ccccn2)cs1)c1ccc2[nH]cnc2c1 [drawing 2012] | 1 to 25 | 26 to 50
CS(=O)(=O)Cc1ccc(C(=O)Nc2nc(-c3ccccn3)cs2)cc1 [drawing 2013] | 1 to 25 | 0
O=C(Nc1nc(-c2ccccn2)cs1)c1ccccn1 [drawing 2014] | 1 to 25 | 51 to 75
O=C(Cn1cnc2ccccc2c1=O)Nc1nc(-c2ccccn2)cs1 [drawing 2015] | 1 to 25 | 51 to 75

Compound | inhibition at 30 µM [1] [%] | inhibition at 30 µM [2] [%]
O=C(Nc1nc(-c2ccccn2)cs1)C1CC(=O)N(c2ccc3c(c2)OCCO3)C1 (centres unmarked) [drawing 2016] | 1 to 25 | 26 to 50
O=C(Nc1nc(-c2ccccn2)cs1)c1cccnc1 [drawing 2017] | 1 to 25 | 1 to 25
O=C(Cc1cccc(F)c1)Nc1nc(-c2ccccn2)cs1 [drawing 2018] | 1 to 25 | 1 to 25
O=C(Nc1nc(-c2ccccn2)cs1)c1ccncc1 [drawing 2019] | 1 to 25 | 26 to 50
O=C(Nc1nc(-c2ccccn2)cs1)c1ccc(F)cc1 [drawing 2020] | 26 to 50 | 26 to 50
COc1ccc(-c2csc3[nH]c(-c4ccccn4)nc(=O)c23)cc1 [drawing 2023] | 1 to 25 | 26 to 50
O=c1nc(-c2ccccn2)[nH]c2scc(-c3cccs3)c12 [drawing 2024] | 1 to 25 | 0
O=c1nc(-c2ccccn2)[nH]c2scc(-c3ccccc3Cl)c12 [drawing 2025] | 1 to 25 | 0
Cc1sc2[nH]c(-c3ccccn3)nc(=O)c2c1-c1ccccc1 [drawing 2026] | 1 to 25 | 0
O=c1nc(-c2ccccn2)[nH]c2ccsc12 [drawing 2027] | 0 | 1 to 25
O=c1nc(-c2ccccn2)[nH]c2sc(-c3ccccc3)cc12 [drawing 2028] | 76 to 100 | 51 to 75
CCN(CC)C(=O)c1sc2[nH]c(-c3ccccn3)nc(=O)c2c1C [drawing 2029] | 1 to 25 | 1 to 25
O=c1nc(-c2ccccn2)[nH]c2c1sc1ccccc12 [drawing 2030] | 76 to 100 | 76 to 100
Cc1cc2c(=O)nc(-c3cc(OCC(F)F)ccn3)[nH]c2s1 [drawing 2031] | 1 to 25 | 1 to 25
Cc1nc(-c2ccccn2)nc(O)c1CCC(=O)Nc1cc(F)ccc1F [drawing 2032] | 1 to 25 | 1 to 25
Cc1nc(-c2ccccn2)nc(O)c1CCC(=O)NC1CCc2ccccc21 (centres unmarked) [drawing 2033] | 26 to 50 | 26 to 50
Cc1nc(-c2ccccn2)nc(O)c1CCC(=O)Nc1ccc(C(C)C)cc1 [drawing 2034] | 1 to 25 | 0
Cc1nc(-c2ccccn2)nc(O)c1CCC(=O)NCC1COc2ccccc2O1 (centres unmarked) [drawing 2035] | 1 to 25 | 0
Cc1nc(-c2ccccn2)nc(O)c1CCC(=O)Nc1cccc(OCC(=O)N2CCCC2)c1 [drawing 2036] | 1 to 25 | 0
CCN(CC)S(=O)(=O)c1cc(C)c(C)c(NC(=O)CCc2c(C)nc(-c3ccccn3)nc2O)c1 [drawing 2037] | 1 to 25 | 0
OCCNc1nc(-c2ccccn2)nc2scc(-c3ccccc3)c12 [drawing 2038] | 0 | 1 to 25
COCC(C)Nc1nc(-c2ccccn2)nc2sc(C)c(-c3ccccc3)c12 (centres unmarked) [drawing 2039] | 76 to 100 | 76 to 100
CCc1cc(NNC(=O)c2ccc(C#N)cc2)nc(-c2ccccn2)n1 [drawing 2040] | 76 to 100 | 76 to 100

Compound | inhibition at 30 µM [1] [%] | inhibition at 30 µM [2] [%]
COCCCn1ccc(Nc2cc(C)nc(-c3ccccn3)n2)n1 [drawing 2041] | 0 | 26 to 50
CC(O)CNc1nc(-c2ccccn2)nc2scc(-c3ccccc3)c12 (centres unmarked) [drawing 2042] | 1 to 25 | 26 to 50
NC(=O)C1(CNc2nc(-c3ccccn3)nc3c2CCC3)CCCC1 [drawing 2043] | 1 to 25 | 26 to 50
OCCOCCNc1nc(-c2ccccn2)nc2scc(-c3ccccc3)c12 [drawing 2044] | 1 to 25 | 1 to 25
Cc1sc2nc(-c3ccccn3)nc(NCCCO)c2c1-c1ccccc1 [drawing 2045] | 1 to 25 | 1 to 25
COC(=O)c1cccc(CN2CCC(CSc3ccccc3)C2)c1C#N (centres unmarked) [drawing 2046] | 0 | 26 to 50
COC(=O)c1cc(NCc2nc(CC(C)C)no2)ccc1Cl [drawing 2047] | 1 to 25 | 26 to 50
Cc1cccc(CN(Cc2ccccn2)Cc2nccn2C)c1 [drawing 2048] | 1 to 25 | 26 to 50
Cc1ccc(CN(Cc2ccco2)C(=O)c2oc3ccccc3c2C)cc1 [drawing 2049] | 0 | 1 to 25
Cc1ccc(O)c(CN(C)Cc2nccn2Cc2ccccc2)n1 [drawing 2050] | 0 | 1 to 25
FC(F)(F)Sc1ccc(Cc2ccc(SC(F)(F)F)cc2)cc1 [drawing 2051] | 0 | 1 to 25
CCCCSc1nc(-c2cccs2)c(C(=O)C(F)(F)F)cc1C#N [drawing 2053] | 0 | 51 to 75
CCC(C)(C)c1ccc(OCCCC(=O)NC(C(=O)OC)C(C)C)c(C(C)(C)CC)c1 (centres unmarked) [drawing 2054] | 26 to 50 | 26 to 50
Oc1ccc(C2(c3cccc(Cl)c3)CCCC2)cc1 [drawing 2055] | 76 to 100 | 76 to 100
Cc1ccc(-c2ccc(Oc3ccc(C(F)(F)F)cn3)c(C)c2)cc1 [drawing 2056] | 1 to 25 | 0
CCOc1cc(C(=O)Oc2c(C)ccc(C)c2C)cc(OCC)c1OCC [drawing 2057] | 1 to 25 | 51 to 75
COC(=O)c1ccc(C(=O)NCC2(c3ccccc3OC)CCCC2)nc1 [drawing 2058] | 1 to 25 | 0
CCOc1cc(S(=O)(=O)N(Cc2ccccc2)Cc2ccccc2)c(OCC)cc1C [drawing 2059] | 1 to 25 | 1 to 25
COc1ccc(CN(CC[S+]([O-])c2cc(Cl)ccc2Cl)C2CC2)cc1 (centres unmarked) [drawing 2060] | 1 to 25 | 0
CCCOc1ccc2ccccc2c1CN(C)S(=O)(=O)N1CC(C)OC(C)C1 (centres unmarked) [drawing 2061] | 51 to 75 | 1 to 25
O=S(=O)(Oc1cc(C(F)(F)F)cc(C(F)(F)F)c1)N1CCc2ccccc2C1 [drawing 2062] | 0 | 51 to 75
